Results reported in patent US20240197761A1, “FUCOSYLATION AND IMMUNE MODULATION IN CANCER” (H. LEE MOFFITT CANCER CENTER AND RESEARCH INSTITUTE, INC., priority 2021, published 2024).

Tests used:
[1] = test system: dendritic cells; assay: TLR profiles of bone marrow-derived dendritic cells (RT-qPCR); assay type: cell-based, Balb/C mice; settings: 250 uM L-fucose, 96 hours, then LPS 24 hours
Experimental: Bone marrow was harvested from either 4-week-old (young) or 6-month-old (old) Balb/C mice. Cells were isolated and cultured in DC maturation cocktail ([…], […], ±250 uM L-fucose) for 96 hours. At 96 hours the cells were treated with 10 ug/ml LPS for 24 hours after which the cells were harvested, and the RNA was extracted. RT-qPCR was performed. Data represents fold change of indicated genes normalized to values of young mice. N=3 mice per age group.

[2] = test system: NRAS G13D-mutant mouse melanoma (SW1) tumors; assay: SW1 mouse melanoma model ± oral L-fucose: tumor growth, tumor fucosylation, itIC and splenic flow cytometric profiling; assay type: in vivo, C3H/HeN mice; settings: oral L-fuc
Experimental: Tumors of SW1 or SM1 melanoma cells from […] or C57BL/6 mice, respectively) were digested using 1× tumor digest buffer (0.5 mg/mL Collagenase I, 0.5 mg/mL Collagenase IV, 0.25 mg/mL Hyalyronidase V, 0.1 mg/mL DNAse I in HBSS (Millipore Sigma (St. Louis, MO)). Tumors were homogenized using the Miltenyi MACs dissociator. Red blood cells were lysed using ACK lysis buffer (Life Technologies, (Grand Island, NY)). Tumor homogenate cells were counted using a standard hemocytometer.
Total TILs were gated first to single cells (based on forward scatter height vs width, followed by side scatter height vs. width). Live cells were gated from the Zombie negative population from the population above. TILs were gated based on splenocyte size from a control spleen. Individual immune subpopulations were sub-gated from the total TIL population using the following staining criteria: CD3+ for CD3+ T cells; CD3+/CD4+/CD8− for CD4+T cells; CD3+/CD4−/CD8+ for CD8+ T cells, CD11c+/CD11b+ for DCs; either NK1.1 (for C57/BL6 mice) or DX5 (for C3H/HeJ) for NK cells; CD11b+/GR1+ for MDSC-like cells; and F4/80+ for macrophages. Single-cell suspensions from tumor and spleen tissue were stained with Live/Dead Zombie NIR (Biolegend, (San Diego, CA)) at 1:1,000 in PBS for 20 min. Cell suspensions were spun down and stained with the following with antibodies at 0.5 μg/ml per antibody: APC anti-mouse CD3, Pacific Blue anti-mouse CD4, BV785 anti-mouse CD8, PerCP anti-mouse CD25, FITC anti-mouse F4/80, PeCy7 anti-mouse CD11c, PE anti-mouse NK1.1 or PE anti-mouse DX5, and PerCP-Cy5.5 anti-mouse CD11 b. After staining, the cells were washed and fixed (2% formaldehyde), followed by another wash and flow cytometric analysis. The compensation controls were prepared using 0.5 μg/mL of each antibody with UltraComp eBeads, (ThermoFisher Scientific (Waltham, MA)). All samples were subject to flow cytometric profiling using a LSR Flow Cytometer (BD Biosciences (San Jose, CA)) and analysis as indicated using FlowJo software (BD Biosciences (San Jose, CA)).
For assessment of mouse tumor fucosylation, FFPE tumor sections were immunostained with FITC-conjugated AAL lectin (0.4 μg/mL, Vector Laboratories (Burlingame, CA)) and rabbit anti-Mart1+rabbit anti-S100 (melanoma marker cocktail). The slides were mounted with Vectashield+DAPI (Vector Laboratories (Burlingame, CA)). Four representative microscopy images per tumor were acquired using a Keyence BZ-X710, and images were process and analyzed using FIJI (NIH) as follows: melanoma marker-positive regions were assigned as regions of interest (ROI) in which we measured Integrated density of AAL signal. Integrated densities of control tumors were assigned as 1, and Integrated AAL density values of experimental tumors were divided by control to produce relative fold changes and plotted as column charts. […]

## C[C@H](O)[C@@H](O)[C@@H](O)[C@H](O)C=O [L-fucose]
[1]
  TLR profiles of dendritic cells: alters
[2]
  CD4+ and CD8+ T cells of total itICs: doubled
  increase of total itICs: 10-50 fold
  increase of tumor fucosylation: ~2 fold
  reduction of tumor growth: ~50%
  splenic lymphocyte profiles: without altering
